Test results published in US7897769B2, “Intermediates for fluorinated dihydrotetrabenazine ether imaging agents and probes” (General Electric Company, priority 2007, dated 2011).

Biological target: T1, VMAT-2 (Rattus norvegicus, UniProt Q01827)
T1 construct: Novascreen Biosciences Corporation (contract assay provider) protocol Cat. No. 100-0751
Test: VMAT-2 binding affinity measurement (Novascreen protocol Cat. No. 100-0751)
Details: for Ki: VMAT-2 binding affinity; for binding affinity for VMAT-2 (in words): relative to a DTBZ control
Description: VMAT-2 binding affinity measurements were carried out by Novascreen Biosciences Corporation (Hanover, Md., USA) using protocol Cat. No. 100-0751. Novascreen, Inc. is a commercial provider of biological assays for the pharmaceutical industry.

T1 sequence (Q01827 whole entry): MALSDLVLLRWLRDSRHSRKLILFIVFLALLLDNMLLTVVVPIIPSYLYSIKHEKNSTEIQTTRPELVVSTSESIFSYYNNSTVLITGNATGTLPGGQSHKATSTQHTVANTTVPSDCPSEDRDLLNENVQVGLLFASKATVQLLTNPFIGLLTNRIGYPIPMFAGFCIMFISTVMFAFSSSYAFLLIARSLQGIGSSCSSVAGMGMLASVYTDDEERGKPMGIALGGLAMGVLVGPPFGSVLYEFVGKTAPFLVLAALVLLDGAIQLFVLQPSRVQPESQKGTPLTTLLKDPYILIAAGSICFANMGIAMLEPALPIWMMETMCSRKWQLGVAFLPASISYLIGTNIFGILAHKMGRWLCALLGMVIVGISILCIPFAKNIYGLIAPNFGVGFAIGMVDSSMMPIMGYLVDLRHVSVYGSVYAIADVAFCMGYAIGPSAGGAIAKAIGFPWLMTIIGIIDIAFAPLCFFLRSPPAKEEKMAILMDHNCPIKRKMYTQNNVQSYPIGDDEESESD

## COc1cc2c(cc1OC)[C@H]1C[C@@H](OCCF)[C@H](CC(C)C)CN1CC2 [Compound 22]
  Ki: 3.2 nM
  binding affinity for VMAT-2 (in words): very high binding affinity

## COc1cc2c(cc1OC)[C@H]1C[C@@H](OCCCF)[C@H](CC(C)C)CN1CC2 [Compound 23]
  Ki: 6.4 nM
  binding affinity for VMAT-2 (in words): very high binding affinity
